From patent US20260209299A1, “TROP2 IMMUNOGENIC PEPTIDE” (ASTON SCIENCE INC., priority 2023, published 2026)

Experiments:
MDA-MB-231 cell line [1] = test: Antitumor effect of cancer vaccine and antibody-drug conjugate (ADC) in Xenograft cancer mouse model; assay type: in vivo, athymic Balb/C nude mice; conditions: peptide mix + CFA/IFA + mGM-CSF subcutaneously days 1, 8, 15, 22; Trodelvy 0.81 mg/kg intravenously Days 4 and 11
Method: (§1) Five-week-old athymic Balb/C nude mice weighing 16 to 18 g were purchased and acclimated for at least 3 to 7 days.
(§2) The MDA-MB-231 cell line, a human-derived triple-negative breast cancer cell line, was suspended at 5×10^6 cells per individual in 200 μl of a 1:1 mixture of PBS and Matrigel and injected subcutaneously into the axillary region between the right scapular area and the thoracic wall of the mouse.
(§3) Next, the immunogenic peptide (TROP2 peptide) according to the present invention was administered subcutaneously at a dose of 100 μg per mouse on days 1, 8, 15, and 22 (the 16th day after cell transplantation was designated as Day 0, and the following day was designated as Day 1) for a total of 4 times, and the tumor size for each individual was calculated 11 times (0, 1, 4, 7, 11, 14, 18, 21, 25, 28, and 32) from Day 0 to Day 32. Then, the tumor growth change rate was calculated by comparison with the control group of each Test Group.
In order to confirm the antitumor effect of the combination therapy of the immunogenic peptide discovered in the present invention and antibody-drug conjugate (ADC), the antitumor effect was analyzed for the following groups using the same experimental method as in Example 4. […]

[2] = tested on: Type 1 helper T cells (CD4^+IFN-γ^+); test: FACS analysis of Type 1 helper T cells (CD4+IFN-γ+) after peptide treatment of PBMCs; assay type: cell-based, human; conditions: for Combined Score: (A value×0.8)+(B value×0.2); for IFN-gamma − IL-10: A value: difference between distribution of IFN-γ secreting T cells and distribution of IL-10 secretion; for IFN-gamma − Treg: B value: difference between distribution of IFN-γ secreting T cells and Treg distribution; for IFN-gamma (Th1, CD4+): FACS, healthy human PBMCs, peptide 10 μg/ml with 1 μg/ml anti-CD3, 72 hours, then PMA/ionomycin + GolgiPlug 6 hours; for stimulation of Type 1 helper T cells (CD4+IFN-γ+), flow cytometry plot: FIG. 1, peptide together with PMA, ionomycin; for effect of stimulating Type 1 helper T cells while not stimulating Type 2 helper T cells and regulatory T cells: overall FACS conclusion, Table 2
Method: (§4) To this end, the degree of stimulation of Type 1 helper T cells (CD4^+IFN-γ^+), stimulation of interleukin 10 (IL-10)-producing regulatory T cells (CD4^+IL-10+), stimulation of regulatory T cells (CD4^+CD25^+Foxp3^+), and stimulation of Type 2 helper T cells secreting IL-4 and Th17 cells secreting IL-17 according to the treatment with the immunogenic peptide were confirmed.
(§5) Healthy human peripheral blood mononuclear cells (PBMCs; 2,000,000 cells per well) were cultured in 96× round bottom well plates in the presence or absence of anti-CD3 (clone HIT) and peptide at the indicated ratios.
(§6) Specifically, the peptide synthesized in Example 1 at a concentration of 10 μg/ml was cultured with 1 μg/ml of anti-CD3 in a 37° C. incubator for 72 hours. The culture medium consisted of complete RPMI1640 medium supplemented with 10% fetal bovine serum, 10 mM HEPES, 50 µM B-ME, and penicillin/streptomycin/L-glutamine. After 72 hours of culture, the cells were stimulated with Phorbol 12-myristate 13-acetate (50 ng/ml) and Ionomycine (1 μg/mL), which are intracellular cytokine secretion stimulators. To prevent cytokine secretion into the culture medium, the cells were co-stimulated with GolgiPlug, a protein transport inhibitor, at a concentration of 1/100 diluted in PBS for 6 hours in a 37° C. incubator. After stimulation, the cells were washed twice with PBS.
(§7) To determine only the viable cells among the PBMC cells, the cells were labeled with eFlor780-conjugated Fixable Viability dye diluted 1:100 in PBS for 15 minutes at 4° C., and washed twice with stain buffer after 15 minutes. After washing, the cells were surface-labeled with BV421-conjugated anti-CD4 (clone RPA-T4) and PE-Cy5-conjugated anti-CD25 (clone 2A3) antibodies diluted 1:100 in stain buffer for 30 minutes at 4° C. Then, the cells labeled with cell surface proteins were washed twice with stain buffer. Next, to detect cytokines secreted intracellularly, the cells were fixed for 1 hour at room temperature with fixation buffer and then washed with permeabilization buffer. To enable antibodies to detect intracellular cytokines, the fixed cells were labeled overnight at 4° C. with PerCP-Cy5. 5-conjugated anti-IFN-g (clone 4S. B3), Brilliant Violet 510-conjugated anti-IL-4 (clone MP4-25D2), anti-Foxp3 (clone PCH101), and PE-conjugated anti-IL-10 diluted 1:100 in permeabilization (clone JES3-19F1) buffer. Then, the cytokine-labeled cells were washed twice with stain buffer, and cell flow assays were performed using an Attune NxT Acoustic Focusing Cytometer (Invitrogen). Data analysis was performed using Flowjo v10.7.1 software (FlowJo).
1) Calculate the difference between the distribution of IFN-γ secreting T cells and the distribution of IL-10 secretion (A value),
2) Calculate the difference between the distribution of IFN-γ secreting T cells and the Treg distribution (B value),
3) Use the formula “(A value×0.8)+(B value×0.2)” as the final combined scoring, and
(§8) The activity results of the immunogenic peptide candidate group were confirmed by first isolating CD4^+ T cells (helper T cells) from PBMCs, and then classifying the isolated cells into Type 1 helper T cells (CD4^+IFN-γ^+), Type 2 helper T cells (CD4^+IL-4^+), regulatory T cells (CD4^+CD25^+Foxp3^+), and interleukin-10 (IL-10)-producing regulatory T cells (CD4^+IL-10^+) and analyzing the results.

[3] = tested on: interleukin 10 (IL-10)-producing regulatory T cells (CD4^+IL-10^+); test: FACS analysis of IL-10-producing regulatory T cells (CD4+IL-10+) after peptide treatment of PBMCs; assay type: cell-based; conditions: healthy human PBMCs, peptide 10 μg/ml with 1 μg/ml anti-CD3, 72 hours, then PMA/ionomycin + GolgiPlug 6 hours
Method: as §5, §6, §7

[4] = tested on: regulatory T cells (CD4^+CD25^+Foxp3^+); test: FACS analysis of regulatory T cells (CD4+CD25+Foxp3+) after peptide treatment of PBMCs; assay type: cell-based; conditions: healthy human PBMCs, peptide 10 μg/ml with 1 μg/ml anti-CD3, 72 hours, then PMA/ionomycin + GolgiPlug 6 hours
Method: as §4, §5, §6, §7, §8

[5] = tested on: Type 2 helper T cells (CD4^+IL-4^+); test: FACS analysis of Type 2 helper T cells (CD4+IL-4+) after peptide treatment of PBMCs; assay type: cell-based, human; conditions: FIG. 2; peptide together with PMA, ionomycin
Method: as §4, §5, §6
as §7, with “(FlowJo). […]” for “(FlowJo).”

[6] = tested on: interferon-gamma (IFN-γ)-forming T cells; test: ELISpot assay of IFN-γ-forming T cells using PBMC; assay type: cell-based; conditions: FIG. 5; human PBMCs, peptide 10 μg/mL, 70-72 hours
Method: The frequency of interferon-gamma (IFN-γ, 3420-4HPW-10, MabTech, Stockholm, Sweden) and interleukin-10 (IL-10, 3430-4HPW-10, MabTech)-forming T cells was assessed using the ELISpot assay.
Specifically, the pre-coated plates were washed four times with 200 μL/well of PBS. Human PBMCs (PCS-800-011, ATCC, Virginia, USA) 2×10^6/mL were dispensed onto the coated plate, and TROP2 peptides were dispensed at 10 μg/mL each and reacted with the PBMCs. The plate reacted under a total volume of 200 μL/well was incubated at 5% CO2, 37° C. for 70-72 hours. Then, the plate was washed 5 times with 200 μL of PBS, and 200 μL of diluted detection antibody (IFN-γ:7-B6-1-biotin; IL-10:12G8-biotin) was added to the wells of the plate, and then reacted at room temperature for 2 hours. After the reaction, the plate was washed 5 times with 200 μL of PBS, and 1:1000 diluted streptavidin-HRP was added at 100 μL/well, followed by reaction at room temperature for 1 hour. Then, the resulting product was washed 5 times with 200 μL of PBS, 100 μL/well of TMB substrate solution was added and reacted at RT for up to 5-10 minutes, and then the spots were counted using the AID iSpot reader system (AID, Strassberg, Germany).

MDA-MB-231 cell line [7] = test: Antitumor effect of cancer vaccine alone in Xenograft cancer mouse model; assay type: in vivo, athymic Balb/C nude mice; conditions: peptide + CFA/IFA + mGM-CSF, 100 μg per mouse subcutaneously on days 1, 8, 15, 22; vs control group G1
Method: as §1, §2
On Day 16 after MDA-MB-231 cell transplantation, 32 mice (mean tumor size 143.8±2.9 mm^3) with tumor sizes reaching approximately 150 mm^3 were selected and assigned to each group of 8 mice.
Each group was divided into Group 1 (G1): PBS+CFA/IFA, Group 2 (G2): SEQ ID NO: 3 peptide+CFA/IFA+mGM-CSF, Group 3 (G3): SEQ ID NO: 10 peptide+CFA/IFA+mGM-CSF, and Group 4 (G4): SEQ ID NO: 17 peptide+CFA/IFA+mGM-CSF.
as §3

Substance | TGI rate (%) at Day 32 (MDA-MB-231 cell line [1]) [%] | Combined Score [2] | IFN-gamma − IL-10 [2] [%] | IFN-gamma − Treg [2] [%] | IFN-gamma (Th1, CD4+) [2] [%] | stimulation of Type 1 helper T cells (CD4+IFN-γ+), flow cytometry plot [2] | effect of stimulating Type 1 helper T cells while not stimulating Type 2 helper T cells and regulatory T cells [2] | IL-10 (Th2, CD4+) [3] [%] | Treg (CD25+/Foxp3) [4] [%] | stimulation of Type 2 helper T cells (CD4+IL-4+), flow cytometry plot [5] | number of cells secreting IFN-γ (ELISpot spots) [6] | TGI rate (%) at Day 32 (MDA-MB-231 cell line [7]) [%]
sacituzumab govitecan [Trodelvy] | 46.1 |  |  |  |  |  |  |  |  |  |  | 
RGEPLQVERTLIYYL [SEQ ID NO: 18] |  | 19.62 | 20.80 | 14.89 | 22.90 | stimulated Type 1 helper T cells (CD4^+IFN-γ^+) to a high degree | most excellent | 2.10 | 8.01 | hardly stimulated Type 2 helper T cells (CD4^+IL-4^+) |  | 
SLRCDELVRTHHILIDLRHRPTAGAFN [SEQ ID NO: 11] |  | 11.16 | 11.71 | 8.97 | 17.20 |  |  | 5.49 | 8.23 |  |  | 
AGLIAVIVVVVVALVAGMAVLVITNRRKSGKYKK [SEQ ID NO: 24] |  | 11.88 | 12.35 | 10.00 | 17.10 |  |  | 4.75 | 7.10 |  |  | 
ELRONTSQKAAGDVD (ELRQNTSQKAAGDVD) [SEQ ID NO: 17] |  | 20.02 | 21.27 | 15.03 | 23.20 | stimulated Type 1 helper T cells (CD4^+IFN-γ^+) to a high degree | most excellent | 1.93 | 8.17 | hardly stimulated Type 2 helper T cells (CD4^+IL-4^+) | dramatically increased the secretion of IFN-γ | 57.2
RERYRLHPKFVAAVH [SEQ ID NO: 15] |  | 12.27 | 12.87 | 9.87 | 17.80 |  |  | 4.93 | 7.93 |  |  | 
LVRPSEHALVDNDGL [SEQ ID NO: 10] |  | 17.84 | 18.97 | 13.34 | 21.00 | stimulated Type 1 helper T cells (CD4^+IFN-γ^+) to a high degree | most excellent | 2.03 | 7.66 | hardly stimulated Type 2 helper T cells (CD4^+IL-4^+) | dramatically increased the secretion of IFN-γ | 38.5
EPLQVERTLIYYLDE [SEQ ID NO: 19] |  |  |  |  |  |  |  |  |  |  | dramatically increased the secretion of IFN-γ | 
PLRLPLLLLVLAAVTGHTAAQD [SEQ ID NO: 3] |  | 20.36 | 21.66 | 15.16 | 24.00 | stimulated Type 1 helper T cells (CD4^+IFN-γ^+) to a high degree | most excellent | 2.34 | 8.84 | hardly stimulated Type 2 helper T cells (CD4^+IL-4^+) | dramatically increased the secretion of IFN-γ | 52.4
SKCLLLKARMSAPKN [SEQ ID NO: 8] |  | 11.06 | 11.65 | 8.68 | 16.90 |  |  | 5.25 | 8.22 |  |  | 
TLIYYLDEIPPKFSM [SEQ ID NO: 20] |  | 10.26 | 10.82 | 8.03 | 16.10 |  |  | 5.28 | 8.07 |  |  | 
PKFSMKRLTAGLIAVIV [SEQ ID NO: 22] |  | 11.25 | 11.75 | 9.25 | 16.90 |  |  |  | 7.65 |  |  | 
